Measurements published in patent US20220062243A1, “P14-Kinase Inhibitors with Anti-Cancer Activity” (The Board of Trustees of the Leland Stanford Junior …, priority 2019, published 2022).

Tests used:
[1] = biological target: PI4K-IIIβ (Homo sapiens, UniProt Q9UBF8); assay: PI-kinase assay (membrane capture assay for lipid kinase activity), PI4KIIIβ; assay type: biochemical; conditions: read-out: PI4KIIIβ kinase activity (IC50 class)
Description: PI4-kinase inhibition can be determined by a kinase activity assay, e.g., by an assay that determines the level of incorporation of radiolabeled phosphate from [γ-^32P]-ATP into a substrate molecule after treatment with a subject compound, relative to a control, by measuring the beta-particle emission rate using a scintillation counter or phosphorimaging.
PI-kinase assay: Compounds are tested in C.1.1. PI kinase assays as described by Shokat et al., “A membrane capture assay for lipid kinase activity.” Nat. Protoc. […] Selected compounds of Table 1 and 2 were prepared and tested for inhibition activity in a variety of kinase assays.

[2] = biological target: PI4KIIIα (Homo sapiens, UniProt P42356); conditions: weak inhibition; cited from earlier work
Sequence of PI4KIIIα (P42356 whole entry): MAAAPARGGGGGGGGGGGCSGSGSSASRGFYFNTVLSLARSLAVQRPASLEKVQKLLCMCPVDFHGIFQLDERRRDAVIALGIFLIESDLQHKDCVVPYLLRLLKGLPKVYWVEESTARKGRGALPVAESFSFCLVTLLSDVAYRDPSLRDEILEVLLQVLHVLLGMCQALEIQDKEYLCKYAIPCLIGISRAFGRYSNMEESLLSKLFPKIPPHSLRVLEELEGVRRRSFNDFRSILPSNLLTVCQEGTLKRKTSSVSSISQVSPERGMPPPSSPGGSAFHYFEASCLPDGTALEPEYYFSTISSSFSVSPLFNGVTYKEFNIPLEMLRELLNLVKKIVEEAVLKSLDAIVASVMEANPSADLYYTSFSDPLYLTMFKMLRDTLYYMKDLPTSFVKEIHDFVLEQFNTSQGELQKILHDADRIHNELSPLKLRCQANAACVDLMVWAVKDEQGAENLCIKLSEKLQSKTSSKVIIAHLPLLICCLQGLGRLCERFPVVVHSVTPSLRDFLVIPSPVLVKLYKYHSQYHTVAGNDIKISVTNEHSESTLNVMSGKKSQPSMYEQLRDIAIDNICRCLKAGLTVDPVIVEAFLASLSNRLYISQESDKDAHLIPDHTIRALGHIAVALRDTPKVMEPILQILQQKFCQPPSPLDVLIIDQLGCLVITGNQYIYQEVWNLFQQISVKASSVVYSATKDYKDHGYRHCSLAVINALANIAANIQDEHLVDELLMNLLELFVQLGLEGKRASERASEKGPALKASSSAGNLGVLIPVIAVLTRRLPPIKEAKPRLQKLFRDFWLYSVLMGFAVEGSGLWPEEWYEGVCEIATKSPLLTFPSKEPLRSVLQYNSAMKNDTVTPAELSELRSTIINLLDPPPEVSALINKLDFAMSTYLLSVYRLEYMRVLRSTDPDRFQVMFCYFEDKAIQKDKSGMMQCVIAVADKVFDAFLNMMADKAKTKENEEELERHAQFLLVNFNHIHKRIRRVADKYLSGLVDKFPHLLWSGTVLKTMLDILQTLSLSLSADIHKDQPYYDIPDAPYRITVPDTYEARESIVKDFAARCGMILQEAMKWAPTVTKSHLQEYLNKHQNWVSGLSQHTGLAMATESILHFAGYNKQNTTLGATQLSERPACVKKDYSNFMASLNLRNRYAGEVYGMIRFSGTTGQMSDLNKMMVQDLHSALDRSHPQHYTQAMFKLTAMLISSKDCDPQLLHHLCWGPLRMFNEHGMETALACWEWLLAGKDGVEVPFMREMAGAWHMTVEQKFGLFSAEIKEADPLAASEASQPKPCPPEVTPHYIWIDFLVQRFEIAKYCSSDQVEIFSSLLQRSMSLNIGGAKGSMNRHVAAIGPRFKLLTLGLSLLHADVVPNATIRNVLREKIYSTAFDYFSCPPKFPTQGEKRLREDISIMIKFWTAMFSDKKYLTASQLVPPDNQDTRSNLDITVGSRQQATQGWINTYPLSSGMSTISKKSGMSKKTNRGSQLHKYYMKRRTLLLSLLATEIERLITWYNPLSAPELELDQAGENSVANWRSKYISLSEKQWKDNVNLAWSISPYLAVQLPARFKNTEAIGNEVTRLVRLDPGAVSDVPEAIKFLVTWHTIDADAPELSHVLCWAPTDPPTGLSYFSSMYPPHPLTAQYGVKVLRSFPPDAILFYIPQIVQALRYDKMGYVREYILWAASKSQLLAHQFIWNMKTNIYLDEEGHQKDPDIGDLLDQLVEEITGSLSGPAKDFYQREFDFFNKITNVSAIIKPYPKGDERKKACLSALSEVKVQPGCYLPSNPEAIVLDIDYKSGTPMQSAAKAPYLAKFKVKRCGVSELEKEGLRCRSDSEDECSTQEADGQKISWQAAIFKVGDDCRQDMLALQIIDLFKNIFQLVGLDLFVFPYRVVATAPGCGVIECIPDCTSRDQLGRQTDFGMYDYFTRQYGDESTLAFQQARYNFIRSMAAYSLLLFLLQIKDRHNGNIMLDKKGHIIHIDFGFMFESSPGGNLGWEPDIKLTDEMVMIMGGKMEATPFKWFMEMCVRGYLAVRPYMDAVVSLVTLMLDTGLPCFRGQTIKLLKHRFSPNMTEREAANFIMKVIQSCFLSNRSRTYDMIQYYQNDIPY

Sequence of PI4K-IIIβ (Q9UBF8 whole entry): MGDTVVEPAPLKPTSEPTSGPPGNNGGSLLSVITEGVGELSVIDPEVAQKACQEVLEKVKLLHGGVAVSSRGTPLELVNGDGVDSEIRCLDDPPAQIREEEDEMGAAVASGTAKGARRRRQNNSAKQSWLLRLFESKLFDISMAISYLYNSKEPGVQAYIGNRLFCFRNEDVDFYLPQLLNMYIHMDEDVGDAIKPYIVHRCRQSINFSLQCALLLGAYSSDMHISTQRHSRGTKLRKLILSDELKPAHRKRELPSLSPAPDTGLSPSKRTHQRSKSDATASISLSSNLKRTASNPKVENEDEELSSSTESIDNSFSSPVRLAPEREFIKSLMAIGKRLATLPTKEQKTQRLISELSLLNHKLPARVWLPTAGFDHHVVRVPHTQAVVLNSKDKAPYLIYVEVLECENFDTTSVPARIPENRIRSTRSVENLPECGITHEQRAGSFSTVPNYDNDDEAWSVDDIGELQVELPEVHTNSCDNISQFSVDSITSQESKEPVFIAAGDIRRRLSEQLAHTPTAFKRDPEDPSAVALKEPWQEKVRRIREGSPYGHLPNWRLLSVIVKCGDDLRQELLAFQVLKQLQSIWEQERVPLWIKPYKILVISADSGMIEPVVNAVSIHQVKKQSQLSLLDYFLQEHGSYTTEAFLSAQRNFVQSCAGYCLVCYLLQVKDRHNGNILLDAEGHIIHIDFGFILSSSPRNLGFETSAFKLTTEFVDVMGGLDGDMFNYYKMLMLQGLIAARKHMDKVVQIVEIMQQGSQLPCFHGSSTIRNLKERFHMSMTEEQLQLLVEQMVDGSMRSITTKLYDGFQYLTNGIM

SMILES: COc1ccc(-c2sc(NCC3CCCCC3)nc2C)cc1S(=O)(=O)NC1CCCC(O)C1 (stereo not shown) [Compound S-199, 5-[2-(cyclohexylmethylamino)-4-methyl-thiazol-5-yl]-N-(3-hydroxycyclohexyl)-2-methoxy-benzenesulfonamide]
- IC50 [1]: < 100 nM

SMILES: COc1ccc(-c2sc(N[C@H](C)C3CCCCC3)nc2C)cc1S(=O)(=O)N[C@H]1CCNC1 [Compound S-201, 5-[2-[[(1R)-1-cyclohexylethyl]amino]-4-methyl-thiazol-5-yl]-2-methoxy-N-[(3S)-pyrrolidin-3-yl]benzenesulfonamide]
- IC50 [1]: < 100 nM

SMILES: COc1ccc(-c2sc(NCCC3CCCCC3)nc2C)cc1S(=O)(=O)NC1CCNCC1 [Compound S-202, 5-[2-(2-cyclohexylethylamino)-4-methyl-thiazol-5-yl]-2-methoxy-N-(4-piperidyl)benzenesulfonamide]
- IC50 [1]: < 100 nM

SMILES: COc1ccc(-c2sc(N[C@@H](C)C3CCCCC3)nc2C)cc1S(=O)(=O)N[C@H]1CC[C@@H](O)CC1 [Compound S-206, 5-[2-[[(1S)-1-cyclohexylethyl]amino]-4-methyl-thiazol-5-yl]-N-(4-hydroxycyclohexyl)-2-methoxy-benzenesulfonamide]
- IC50 [1]: 1000 to 10000 nM

SMILES: COc1ccc(-c2sc(NCCC3CCCCC3)nc2C)cc1S(=O)(=O)NC1CCC(O)C1 (stereo not shown) [Compound S-214, 5-[2-(2-cyclohexylethylamino)-4-methyl-thiazol-5-yl]-N-(3-hydroxycyclopentyl)-2-methoxy-benzenesulfonamide]
- IC50 [1]: 100 to 1000 nM

SMILES: COc1ccc(-c2sc(NC(C)C)nc2C)cc1S(=O)(=O)N[C@H]1CC[C@H](O)CC1 [Compound S-215, N-(4-hydroxycyclohexyl)-5-[2-(isopropylamino)-4-methyl-thiazol-5-yl]-2-methoxy-benzenesulfonamide]
- IC50 [1]: < 100 nM

SMILES: COc1ccc(-c2sc(NC(C)(C)C)nc2C)cc1S(=O)(=O)N[C@H]1CC[C@H](O)CC1 [Compound S-216, 5-[2-(tert-butylamino)-4-methyl-thiazol-5-yl]-N-(4-hydroxycyclohexyl)-2-methoxy-benzenesulfonamide]
- IC50 [1]: < 100 nM

SMILES: COc1ccc(-c2sc(NC(C)(C)C)nc2C)cc1S(=O)(=O)NC1CCCC(O)C1 (stereo not shown) [Compound S-218, 5-[2-(tert-butylamino)-4-methyl-thiazol-5-yl]-N-(3-hydroxycyclohexyl)-2-methoxy-benzenesulfonamide]
- IC50 [1]: < 100 nM

SMILES: COc1ccc(-c2sc(NC(C)(C)C)nc2C)cc1S(=O)(=O)NC1CCNCC1 [Compound S-219, 5-[2-(tert-butylamino)-4-methyl-thiazol-5-yl]-2-methoxy-N-(4-piperidyl)benzenesulfonamide]
- IC50 [1]: < 100 nM

SMILES: COc1ccc(-c2sc(NC(C)(C)C)nc2C)cc1S(=O)(=O)NC1CCCNC1 (stereo not shown) [Compound S-220, 5-[2-(tert-butylamino)-4-methyl-thiazol-5-yl]-2-methoxy-N-(3-piperidyl)benzenesulfonamide]
- IC50 [1]: < 100 nM

SMILES: COc1ccc(-c2sc(NCC(C)C)nc2C)cc1S(=O)(=O)N[C@H]1CC[C@H](O)CC1 [Compound S-221, N-(4-hydroxycyclohexyl)-5-[2-(isobutylamino)-4-methyl-thiazol-5-yl]-2-methoxy-benzenesulfonamide]
- IC50 [1]: < 100 nM

SMILES: COc1ccc(-c2sc(NCC(C)C)nc2C)cc1S(=O)(=O)N[C@H]1CC[C@@H](O)CC1 [Compound S-222, N-(4-hydroxycyclohexyl)-5-[2-(isobutylamino)-4-methyl-thiazol-5-yl]-2-methoxy-benzenesulfonamide]
- IC50 [1]: < 100 nM

SMILES: COc1ccc(-c2sc(NCC(C)C)nc2C)cc1S(=O)(=O)NC1CCCC(O)C1 (stereo not shown) [Compound S-223, N-(3-hydroxycyclohexyl)-5-[2-(isobutylamino)-4-methyl-thiazol-5-yl]-2-methoxy-benzenesulfonamide;2,2,2-trifluoroacetic acid]
- IC50 [1]: < 100 nM

SMILES: COc1ccc(-c2sc(NC(=O)CC3CCOCC3)nc2C)cc1S(=O)(=O)Nc1cccc(C)c1 [Compound S-226, N-[5-[4-methoxy-3-(m-tolylsulfamoyl)phenyl]-4-methyl-thiazol-2-yl]-2-tetrahydropyran-4-yl-acetamide]
- IC50 [1]: < 100 nM

SMILES: COc1ccc(-c2sc(NC(=O)CC3CCOCC3)nc2C)cc1S(=O)(=O)Nc1ccc(O)cc1 [Compound S-227, N-[5-[3-[(4-hydroxyphenyl)sulfamoyl]-4-methoxy-phenyl]-4-methyl-thiazol-2-yl]-2-tetrahydropyran-4-yl-acetamide]
- IC50 [1]: < 100 nM

SMILES: COc1ccc(-c2sc(NC(=O)CC3CCOCC3)nc2C)cc1S(=O)(=O)Nc1ccccc1F [Compound S-230, N-[5-[3-[(2-fluorophenyl)sulfamoyl]-4-methoxy-phenyl]-4-methyl-thiazol-2-yl]-2-tetrahydropyran-4-yl-acetamide]
- IC50 [1]: < 100 nM

SMILES: COc1ccc(-c2sc(NC(=O)CC3CCOCC3)nc2C)cc1S(=O)(=O)Nc1ccc(O)cc1C [Compound S-231, N-[5-[3-[(4-hydroxy-2-methyl-phenyl)sulfamoyl]-4-methoxy-phenyl]-4-methyl-thiazol-2-yl]-2-tetrahydropyran-4-yl-acetamide]
- IC50 [1]: < 100 nM

SMILES: COc1ncc(-c2sc(NC(=O)CC3CCOCC3)nc2C)cc1S(=O)(=O)Nc1ccc(F)cc1F [Compound S-258]
- IC50 [1]: 1000 to 10000 nM

SMILES: COc1ncc(-c2sc(NC(=O)CC3CCOCC3)nc2C)cc1S(=O)(=O)Nc1cccc(O)c1 [Compound S-259]
- IC50 [1]: < 100 nM

SMILES: COc1ncc(-c2sc(NC(=O)CC3CCOCC3)nc2C)cc1S(=O)(=O)Nc1ccc(F)cc1F [Compound S-260]
- IC50 [1]: < 100 nM

SMILES: COc1ncc(-c2sc(NC(=O)CC3CCOCC3)nc2C)cc1S(=O)(=O)Nc1ccc(O)cc1 [Compound S-261]
- IC50 [1]: < 100 nM

SMILES: COc1ncc(-c2sc(NC(=O)CC3CCOCC3)nc2C)cc1S(=O)(=O)N[C@H]1CC[C@@H](O)CC1 [Compound S-262]
- IC50 [1]: < 100 nM

SMILES: COc1ncc(-c2sc(NC(=O)CC3CCOCC3)nc2C)cc1S(=O)(=O)NC1CCCC(O)C1 (stereo not shown) [Compound S-263]
- IC50 [1]: < 100 nM

SMILES: COc1ncc(-c2sc(NC(=O)CC3CCOCC3)nc2C)cc1S(=O)(=O)Nc1cccc(C(=O)O)c1 [Compound S-265]
- IC50 [1]: < 100 nM

SMILES: COc1ccc(-c2sc(NC(=O)C(C)(C)C)nc2C)cc1S(=O)(=O)Nc1ccc(O)cc1 [PI4KIIIbeta-IN-10]
- IC50 [2]: ~3000 nM
